Assays:
[1] = Plasma liver enzymes AST, ALT, ALP (hepatotoxicity); format: in vivo, mice (C57BL/6J); conditions: 0.025-0.1 mg/g daily gavage two weeks, versus oil control
Protocol: (§1) To detect the early stage prevention of colon cancer, an established AARGC rodent model with injection of the carcinogen AOM was used. Synthetic 6-bromoisatin at 3 different dosages (0.025, 0.05 and 0.1 mg/g body weight) was administered to mice by daily oral gavage in 100 µL sunflower oil, containing 0.02% Vitamin E, for two weeks. The control group was gavaged with sunflower oil (containing 0.02% Vitamin E) only. After two weeks, all mice were injected with a single intraperitoneal (i.p.) injection of AOM at a dosage of 10 mg/kg bodyweight and euthanized 6 h later by cervical dislocation under anesthesia. […] The distal colon of each mouse was excised and fixed in 10% buffered formalin for 24 h and then embedded in paraffin for histological and immunohistological examination.
(§2) Blood samples (0.5–1 mL) were obtained from the mice under anesthesia by cardiac puncture at time of kill and transferred to Gribbles Veterinary Pathology laboratory, Adelaide within heparinized vacutainer tubes then centrifuged to separate into the cell layer for hematology analysis (Abbott Cell Dyn 3700 analyzer, North Ryde, NSW, Australia) and plasma for biochemistry analysis (Siemens Advia 1800 chemistry analyzer, Erlangen, Germany). The plasma levels of the liver enzymes AST, ALT and ALP were assessed as indicators of hepatotoxicity.

[2] = system: epithelial cells of distal colon; test: AARGC mouse model: apoptotic index; format: in vivo, mice (C57BL/6J)
Protocol: This experiment was conducted under Flinders animal welfare approval number 751-10. A total of 38 wild-type (C57BL/6J) male mice aged 10 weeks were obtained from the Animal Resource Centre, Perth, Western Australia. Mice were divided randomly into 4 groups (ten mice in each treatment group and 8 mice in the sunflower oil only control group) and housed in 8 cages (four to five mice per cage). The mice were given water and food (rodent chow) ad libitum and maintained at the temperature of 22 ± 2 °C and humidity of 80% ± 10% with a 12 h light/dark cycle. Mice were weighed every five days and on the day of kill, and monitored daily for signs of illness, such as weight and hair loss, diarrhea, constipation, rectal bleeding, labored breathing, lethargy, eye and nose discharge.
as §1
Distal colon segments were embedded in paraffin and sectioned at 4 µm (3–4 sections per mouse), then stained with hematoxylin, to evaluate apoptosis in epithelial cells of distal colon sections. The slides were examined under a light microscope (Olympus BH-2, Mt Waverly, VIC, Australia, 400× magnification) to identify the apoptotic cells, by characteristic morphological changes such as cell shrinkage, condensed chromatin and sharply delineated cell borders surrounded by an unstained halo [26, 49]. Twenty randomly chosen crypts were used to calculate the percent of apoptotic cells per crypt. The mean crypt column height was also determined.

Blood hematology = format: in vivo, mice (C57BL/6J)
Protocol: as §1, §2

HT29 cells = test: LDH release (CytoTox-ONE membrane integrity, necrosis); format: cell-based, human; conditions: any concentration, in comparison with DMSO control, 12 h
Protocol: All media and chemicals were purchased from Sigma Aldrich (Castle Hill, NSW, Australia) unless otherwise stated. HT29 human colorectal cancer cell line (passage no. 36-42) were cultured (37 °C and 5% CO2) in Dulbecco’s Modified Eagle’s Medium (DMEM) supplemented with 4500 mg/L L-glutamine, 10% FBS, 100 U/mL Penicillin/Streptomycin and 1% Non-essential Amino Acid (100×), until the cells reached 70% confluence. The cells were harvested from flasks by trypsinization (1× Trypsin-EDTA) and were seeded (20,000 cells/well) into clear 96-well plates (Costar®, Mt Martha, VIC, Australia) for measurement of cell viability and white (opaque) 96-well plates (Interpath, Heidelberg West, VIC, Australia) for determination of apoptosis and necrosis. HT29 cells were incubated for 48 h, then the media was removed and the cells were washed with PBS. To treat the cells, synthetic 6-bromoisatin was dissolved in 100% dimethylsulphoxide (DMSO) then diluted in media and added to the cells at a range of concentrations from 0.1 to 0.01 mg/mL, in triplicate (final DMSO concentration of 1%). 1% DMSO controls were also included on each plate. Staurosporine (5 µM) for apoptosis and lysis solution (5 μL/well, Promega, Alexandria, NSW, Australia) for necrosis were added to the white plates in triplicate, as positive controls. All cells were treated for 12 h. […]

Plasma biochemistry = format: in vivo, mice (C57BL/6J)
Protocol: as §1, §2

[3] = 0.025 mg/g, n = 6, 6 h after AOM 10 mg/kg
[4] = 0.05 mg/g, n = 6, 6 h after AOM 10 mg/kg
[5] = 0.1 mg/g, n = 8, 6 h after AOM 10 mg/kg

Hct (Hematocrit) (Blood hematology; [3]): 0.4 ± 0.01 L/L | Hemoglobin (Blood hematology; [3]): 139.7 ± 5.1 g/L | Lymphocytes (Blood hematology; [3]): 3.3 ± 1.1 ×10^9/L | MCH (Mean Corpuscular Hemoglobin) (Blood hematology; [3]): 15.0 ± 0.0 pg | MCHC (Mean Corpuscular Hemoglobin Concentration) (Blood hematology; [3]): 322.7 ± 1.5 g/L | MCV (Mean Corpuscular Volume) (Blood hematology; [3]): 46.5 ± 0.8 fL | Monocytes (Blood hematology; [3]): 0.2 ± 0.3 ×10^9/L | Neutrophils (Blood hematology; [3]): 1.6 ± 0.8 ×10^9/L | Red cell count (Blood hematology; [3]): 9.3 ± 0.4 ×10^12/L | White cell count (Blood hematology; [3]): 5.2 ± 1.8 ×10^9/L | Hct (Hematocrit) (Blood hematology; [4]): 0.4 ± 0.01 L/L | Hemoglobin (Blood hematology; [4]): 135.0 ± 3.5 g/L | Lymphocytes (Blood hematology; [4]): 3.4 ± 0.8 ×10^9/L | MCH (Mean Corpuscular Hemoglobin) (Blood hematology; [4]): 15.0 ± 0.0 pg | MCHC (Mean Corpuscular Hemoglobin Concentration) (Blood hematology; [4]): 319.0 ± 2.8 g/L | MCV (Mean Corpuscular Volume) (Blood hematology; [4]): 46.7 ± 1.2 fL | Monocytes (Blood hematology; [4]): 0.2 ± 0.1 ×10^9/L | Neutrophils (Blood hematology; [4]): 2.2 ± 1.3 ×10^9/L | Red cell count (Blood hematology; [4]): 9.1 ± 0.4 ×10^12/L | White cell count (Blood hematology; [4]): 5.8 ± 1.5 ×10^9/L | Hct (Hematocrit) (Blood hematology; [5]): 0.4 ± 0.02 L/L | Hemoglobin (Blood hematology; [5]): 138.4 ± 5.7 g/L | Lymphocytes (Blood hematology; [5]): 2.3 ± 0.9 ×10^9/L | MCH (Mean Corpuscular Hemoglobin) (Blood hematology; [5]): 15.0 ± 0.0 pg | MCHC (Mean Corpuscular Hemoglobin Concentration) (Blood hematology; [5]): 319.8 ± 3.0 g/L | MCV (Mean Corpuscular Volume) (Blood hematology; [5]): 46.4 ± 0.7 fL | Monocytes (Blood hematology; [5]): 0.1 ± 0.1 ×10^9/L | Neutrophils (Blood hematology; [5]): 0.8 ± 0.7 ×10^9/L | Red cell count (Blood hematology; [5]): 9.4 ± 0.5 ×10^12/L | White cell count (Blood hematology; [5]): 3.2 ± 1.1 ×10^9/L | Albumin (Plasma biochemistry; [3]): 28.7 ± 1.5 g/L | Calcium (Plasma biochemistry; [3]): 2.2 ± 0.1 mmol/L | Creat. (Creatinine) (Plasma biochemistry; [3]): 13.3 ± 0.8 µmol/L | Globulin (Plasma biochemistry; [3]): 18.0 ± 1.4 g/L | NA/K (Sodium/Potassium ratio) (Plasma biochemistry; [3]): 29.1 ± 1.2 | Potassium (Plasma biochemistry; [3]): 5.1 ± 0.2 mmol/L | Protein (Plasma biochemistry; [3]): 46.7 ± 2.8 g/L | Sodium (Plasma biochemistry; [3]): 147.7 ± 0.5 mmol/L | Urea (Plasma biochemistry; [3]): 9.7 ± 1.6 mmol/L | Albumin (Plasma biochemistry; [4]): 27.8 ± 1.5 g/L | Calcium (Plasma biochemistry; [4]): 2.2 ± 0.04 mmol/L | Creat. (Creatinine) (Plasma biochemistry; [4]): 14.7 ± 0.5 µmol/L | Globulin (Plasma biochemistry; [4]): 18.3 ± 0.8 g/L | NA/K (Sodium/Potassium ratio) (Plasma biochemistry; [4]): 33.5 ± 2.7 | Potassium (Plasma biochemistry; [4]): 4.5 ± 0.4 mmol/L | Protein (Plasma biochemistry; [4]): 46.2 ± 1.9 g/L | Sodium (Plasma biochemistry; [4]): 149.7 ± 1.4 mmol/L | Urea (Plasma biochemistry; [4]): 9.9 ± 1.4 mmol/L | Albumin (Plasma biochemistry; [5]): 28.2 ± 1.5 g/L | Calcium (Plasma biochemistry; [5]): 2.2 ± 0.1 mmol/L | Creat. (Creatinine) (Plasma biochemistry; [5]): 14.6 ± 1.2 µmol/L | Globulin (Plasma biochemistry; [5]): 17.9 ± 1.2 g/L | NA/K (Sodium/Potassium ratio) (Plasma biochemistry; [5]): 34.1 ± 3.6 | Potassium (Plasma biochemistry; [5]): 4.3 ± 0.4 mmol/L | Protein (Plasma biochemistry; [5]): 46.1 ± 2.2 g/L | Sodium (Plasma biochemistry; [5]): 149.7 ± 1.2 mmol/L | Urea (Plasma biochemistry; [5]): 9.6 ± 1.2 mmol/L
SMILES: O=C1Nc2cc(Br)ccc2C1=O [6-bromoisatin, 6-Bromoindole-2,3-dione]
plasma level of AST, ALT and ALP [1]: No significant difference | increase in apoptotic index over the oil control ([2]; 0.05 mg/g daily oral gavage two weeks, distal colon, 6 h post AOM 10 mg/kg): 2.3 fold | apoptotic index lower than the dose of 0.05 mg/g ([2]; 0.1 mg/g daily oral gavage two weeks, distal colon): 40% | apoptotic index ([2]; 0.1 mg/g daily oral gavage two weeks, distal colon, compared with control): significantly induced apoptosis | apoptotic index ([2]; lowest concentration (0.025 mg/g) daily oral gavage two weeks, compared to AOM injected control): not a significant difference | level of lactate dehydrogenase (LDH) (HT29 cells): No increase

Reference: article PMC3917258, “6-Bromoisatin Found in Muricid Mollusc Extracts Inhibits Colon Cancer Cell Proliferation and Induces Apoptosis, Preventing Early Stage Tumor Formation in a Colorectal Cancer Rodent Model” (Marine Drugs, 2013)
